# From publication PMC8234143, “Synthesis and Antiviral Evaluation of Nucleoside Analogues Bearing One Pyrimidine Moiety and Two D-Ribofuranosyl Residues” (Molecules, 2021)
# “Also recorded” adds a separate entry of the source. Read-outs that look alike come from different tables or passages of the source.
# How the values were obtained:
# [1] = in vitro; details: African green monkey, CC50, Vero cells, MTT; concentration causing 50% cell death
# [2] = in vitro; details: dog
# [3] = system: Coxsackie B3 virus; assay: Antiviral (cytoprotection, MTT) assay against Coxsackie B3 virus in Vero cells; assay type: cell-based, coxsackievirus B3; details: for SI: CC50/IC50 ratio, Coxsackie B3 / Vero; for IC50: Enterovirus B, B3, Vero, 48 h, 50% inhibition of virus replication, Vero cells
# [4] = system: A/Puerto Rico/8/34 (H1N1) influenza virus; assay: Antiviral (cytoprotection, MTT) assay against influenza virus in MDCK cells; assay type: cell-based; details: for SI: CC50/IC50 ratio, influenza H1N1 / MDCK; for IC50: 48 h
# [5] = system: A/Puerto Rico/8/34 (H1N1) influenza virus; parameters: method as in PMID 32930935; details: cited from earlier work; for IC50: 50% inhibition of virus replication, MDCK cells, earlier published compounds; for SI: CC50/IC50 ratio, influenza H1N1 / MDCK; for antiviral activity against influenza virus A H1N1 (in words): monosubstituted analogues
# [6] = system: Coxsackie B3 virus; parameters: method as in PMID 32930935; details: cited from earlier work; for IC50: 50% inhibition of virus replication, Vero cells; for SI: CC50/IC50 ratio, Coxsackie B3 / Vero
# [7] = system: Vero cells; details: cited from earlier work
# [8] = system: MDCK cells; details: earlier published compounds; cited from earlier work
# [9] = Influenza A virus, H1N1, MDCK, 50% inhibition of virus replication, MDCK cells, read-out: IC50
# [10] = 50% inhibition of virus replication, MDCK cells, read-out: IC50
SMILES,CC50 [1] [µM],CC50 [2] [µM],SI [3],IC50 [3] [µM],SI [4],"IC50 [4, 9] [µM]",IC50 [5] [µM],SI [5],SI [6],also measured
Cc1cc(=O)n(Cc2cn(C3OC(CO)C(O)C3O)nn2)c(=O)n1Cc1cn(C2OC(CO)C(O)C2O)nn1 (stereo not shown) [Compound 2g],> 543,> 543,1,> 543,1,> 100,,,,"IC50 ([4]; Influenza A virus, H1N1, MDCK): > 543 µM; antiviral activity against influenza virus A H1N1 (in words) ([4]; MDCK cells): did not demonstrate antiviral activity"
Cc1cc(=O)n(CCCc2cn(C3OC(CO)C(O)C3O)nn2)c(=O)n1CCCc1cn(C2OC(CO)C(O)C2O)nn1 (stereo not shown) [Compound 2h],> 493,> 493,1,> 493,1,> 100,,,,"IC50 ([4]; Influenza A virus, H1N1, MDCK): > 493 µM"
Cc1cc(=O)[nH]c(=O)n1Cc1cn([C@@H]2O[C@H](CO)[C@@H](O)[C@H]2O)nn1 [Compound 2j],,,,,,,> 885,1,1 ^4,antiviral activity against influenza virus A H1N1 (in words) [5]: did not demonstrate antiviral activity; IC50 [6]: > 1180 µM; CC50 [7]: > 1180 µM; CC50 [8]: > 885 µM
Cc1cc(=O)[nH]c(=O)n1CCCc1cn([C@@H]2O[C@H](CO)[C@@H](O)[C@H]2O)nn1 [Compound 2k],,,,,,,43 ± 5,6 ^4,"1 ^4,3",IC50 [6]: > 1090 µM; CC50 [7]: > 1090 µM
Cc1cc(=O)[nH]c(=O)n1CCCCc1cn([C@@H]2O[C@H](CO)[C@@H](O)[C@H]2O)nn1 [Compound 2m],,,,,,,48 ± 6,6 ^4,"6 ^4,3",IC50 [6]: 106 ± 11 µM
CC(=O)OCC1OC(n2cc(CCCCn3c(=O)c4ccccc4n(CCCCc4cn(C5OC(COC(C)=O)C(OC(C)=O)C5OC(C)=O)nn4)c3=O)nn2)C(OC(C)=O)C1OC(C)=O (stereo not shown) [Compound 4f],,> 324,,,3,104 ± 15.1,,,,antiviral activity against influenza virus A H1N1 (in words) ([4]; MDCK cells): inactive
O=c1c2ccccc2n(Cc2cn(C3OC(CO)C(O)C3O)nn2)c(=O)n1Cc1cn(C2OC(CO)C(O)C2O)nn1 (stereo not shown) [Compound 4g],381 ± 26.1,> 510,2,> 170,3,> 100,,,,"IC50 [4, 10]: 180 ± 19.9 µM"
O=c1c2ccccc2n(CCCc2cn(C3OC(CO)C(O)C3O)nn2)c(=O)n1CCCc1cn(C2OC(CO)C(O)C2O)nn1 (stereo not shown) [Compound 4h],> 465,> 465,1,> 465,3,> 100,,,,"IC50 [4, 10]: 186 ± 21.6 µM; antiviral activity against influenza virus A H1N1 (in words) ([4]; MDCK cells): did not demonstrate antiviral activity"
O=c1c2ccccc2n(CCCCc2cn(C3OC(CO)C(O)C3O)nn2)c(=O)n1CCCCc1cn(C2OC(CO)C(O)C2O)nn1 (stereo not shown) [Compound 4i],> 446,> 446,1,> 446,2,297,,,,"IC50 [4, 10]: 297 ± 32.4 µM"
O=c1[nH]c(=O)n(Cc2cn([C@@H]3O[C@H](CO)[C@@H](O)[C@H]3O)nn2)c2ccccc12 [Compound 4j],,,,,,,42 ± 5,3,1 ^4,IC50 [6]: 133 ± 15 µM
O=c1[nH]c(=O)n(CCCc2cn([C@@H]3O[C@H](CO)[C@@H](O)[C@H]3O)nn2)c2ccccc12 [Compound 4k],,,,,,,212 ± 25,4 ^4,"1 ^4,3",antiviral activity against influenza virus A H1N1 (in words) [5]: did not demonstrate antiviral activity; IC50 [6]: > 82 µM; CC50 [7]: 101 ± 8 µM; CC50 [8]: > 744 µM
O=c1[nH]c(=O)n(CCCCc2cn([C@@H]3O[C@H](CO)[C@@H](O)[C@H]3O)nn2)c2ccccc12 [Compound 4m],,,,,,,30 ± 4,24,"1 ^4,3",IC50 [6]: > 79 µM; CC50 [8]: > 719 µM
O=c1c2nc3ccccc3nc2n(Cc2cn(C3OC(CO)C(O)C3O)nn2)c(=O)n1Cc1cn(C2OC(CO)C(O)C2O)nn1 (stereo not shown) [Compound 5g],> 468,> 468,1,> 468,3,> 100,,,,"IC50 [4, 10]: 187 ± 20.8 µM"
O=c1c2nc3ccccc3nc2n(CCCc2cn(C3OC(CO)C(O)C3O)nn2)c(=O)n1CCCc1cn(C2OC(CO)C(O)C2O)nn1 (stereo not shown) [Compound 5h],> 431,> 431,1,> 431,4,> 100,,,,"IC50 [4, 10]: 115 ± 15.2 µM"
CC(=O)OCC1OC(n2cc(CCCc3c(C)[nH]c(=O)n(CCCc4cn(C5OC(COC(C)=O)C(OC(C)=O)C5OC(C)=O)nn4)c3=O)nn2)C(OC(C)=O)C1OC(C)=O (stereo not shown) [Compound 11c],,> 349,,,12,29.2 ± 4.3,,,,
CC(=O)OCC1OC(n2cc(CCCCc3c(C)[nH]c(=O)n(CCCCc4cn(C5OC(COC(C)=O)C(OC(C)=O)C5OC(C)=O)nn4)c3=O)nn2)C(OC(C)=O)C1OC(C)=O (stereo not shown) [Compound 11d],,> 338,,,3,119 ± 8.7,,,,antiviral activity against influenza virus A H1N1 (in words) ([4]; MDCK cells): did not demonstrate antiviral activity; also recorded: inactive
Cc1[nH]c(=O)n(CCCc2cn(C3OC(CO)C(O)C3O)nn2)c(=O)c1CCCc1cn(C2OC(CO)C(O)C2O)nn1 (stereo not shown) [Compound 11e],394 ± 21.1,> 493,2,> 164,3,164 ± 19.2,,,,antiviral activity against influenza virus A H1N1 (in words) ([4]; MDCK cells): completely inactive
Cc1[nH]c(=O)n(CCCCc2cn(C3OC(CO)C(O)C3O)nn2)c(=O)c1CCCCc1cn(C2OC(CO)C(O)C2O)nn1 (stereo not shown) [Compound 11f],> 471,> 471,1,> 471,1,,,,,"IC50 ([4]; Influenza A virus, H1N1, MDCK): > 471 µM; antiviral activity against influenza virus A H1N1 (in words) ([4]; MDCK cells): did not demonstrate antiviral activity"
Cc1[nH]c(=O)[nH]c(=O)c1CCCc1cn([C@@H]2O[C@H](CO)[C@@H](O)[C@H]2O)nn1 [Compound 11g],,,,,,,67 ± 8,2 ^4,4 ^4,CC50 [7]: 140 ± 10 µM; CC50 [8]: 104 ± 8 µM
Cc1[nH]c(=O)[nH]c(=O)c1CCCCc1cn([C@@H]2O[C@H](CO)[C@@H](O)[C@H]2O)nn1 [Compound 11h],,,,,,,15 ± 3,5,2 ^4,IC50 [6]: > 263 µM; CC50 [7]: 525 ± 31 µM; CC50 [8]: 79 ± 6 µM
CC(=O)OC[C@H]1O[C@@H](n2cc(CCCCc3c(C)[nH]c(=O)[nH]c3=O)nn2)[C@H](OC(C)=O)[C@@H]1OC(C)=O [Compound 11i],,,,,,,> 592,1 ^4,,antiviral activity against influenza virus A H1N1 (in words) [5]: did not demonstrate antiviral activity; CC50 [8]: > 592 µM
Cc1[nH]c(=O)[nH]c(=O)c1CCCCc1cn([C@@H]2O[C@H](CO)[C@@H](O)[C@H]2O)nn1 [Compound 11j],,,,,,,> 787,1,,antiviral activity against influenza virus A H1N1 (in words) [5]: did not demonstrate antiviral activity; CC50 [8]: > 787 µM
"CCC(CC)O[C@@H]1C=C(C(=O)O)C[C@H](N)[C@H]1NC(C)=O [Oseltamivir carboxylate, reference compound]",,> 200,,,>667,,,,,"IC50 ([4]; Influenza A virus, H1N1, MDCK): 0.3 ± 0.06 µM"
"Cc1cc(CCCOc2c(C)cc(-c3noc(C(F)(F)F)n3)cc2C)on1 [Pleconaril, reference compound]",> 1000,,46,21.6,,,,,,
"CC(N)C12CC3CC(CC(C3)C1)C2 (stereo not shown) [Rimantadine, reference compound]",,340 ± 16,,,4,,,,,"IC50 ([4]; Influenza A virus, H1N1, MDCK): 77 ± 8 µM"
